Laboratory results taken from patent US5250673A, “2'-deoxy-5-substituted uridine derivatives” (priority 1983, dated 1993).
Like-named read-outs stand apart in the source and are kept apart here.

Key:
Sarcoma 180 [1] = assay: antitumor activity: 50% inhibition of tumor enhancement, Sarcoma 180 transplanted in mice; assay type: in vivo, mouse; conditions: oral, once a day, 7 days, male ICR/JCL mice, tumor weight day 10
Procedure: (a) Method for determining of antitumor activity value
5×10^6 Cells of mouse-transplantable tumor Sarcoma 180 were transplanted to each male ICR/JCL-strain mouse (having a weight of 27 to 30 g) subcutaneously at the back. Each test compound dissolved or suspended in 0.1% Tween 80^(*) - 0.5% CMC solution was orally administered to various test groups each consisting of 7 mice once a day for 7 consecutive days from the next day of tumor transplanting, in an amount of 1.0 ml of solution or suspension per 100 g weight per day. As to a control group, the same Tween 80-CMC solution containing no test compound was orally administered once a day for 7 consecutive days in an amount of 1.0 ml per 100 g weight per day. (*) (A trademark for a series of surface which is a polyoxyethylene derivative of fatty acid partial ester of sorbitol anhydride, manufactured by I.C.I. U.S., Inc.)
On the tenth day from the tumor transplanting, an average tumor weight for each administration level of each test compound was determined. This weight was compared with an average tumor weight in control group, and the ratio of tumor enhancement inhibition at each administration level of each test compound compared with control group was calculated. From these calculations, the administration level of each test compound at which the ratio of tumor enhancement inhibition become 50% was obtained and the level (amount) was taken as the antitumor activity value of each compound.

[2] = toxicity value: 50% inhibition of weight increase of test animal (Sarcoma 180 tumor-transplanted mice); assay type: in vivo, mouse; conditions: oral, once a day, 7 days, male ICR/JCL mice; for TD50 at 240 h: mouse, sarcoma 180 bearing mice, read-out: Toxicity value (B) Administration amount of test compound at which weight increase of test animal is inhibited by 50% compared with that of control group
Procedure: (b) Method for determining toxicity value
Hitherto, toxicity values of anti-malignant tumor agents have been calculated on the bases of LD50 of test animals, in most cases. […] Therefore, in the present test, accumulated toxicity, which well represents the toxicity of anti-malignant tumor agents, was focused on and, as an indication for sensitive detection of the accumulated toxicity, inhibition of weight increase of test animal was measured. That is, when antitumor activity value was determined in the above item (a), the weight of each mouse of each test groups for each test compounds was measured daily from the day of tumor transplanting, immediately before administration.
On the day of tumor weight measurement, the average net weight increase of each mouse of each test groups for each test compounds from the day of tumor transplanting was measured. These increases were compared with the average net weight increase of control group and the ratio of net weight increase of each test groups of each test compounds to that of control group was calculated. From these calculations, there was obtained an addition amount of each test compound at which weight increase is inhibited by 50% compared with that of control group, and that amount was taken as a toxicity value of each compound.

Sarcoma 180 [3] = assay: calculation of therapeutic index (B)/(A), Sarcoma 180 mice; assay type: in vivo, mouse; parameters: key: C = toxicity value (B) / antitumor activity value (A); conditions: Table 1-c; oral, once a day, 7 days
Procedure: (c) Calculation of therapeutic index
By the use of the antitumor activity value (hereinafter referred to as A) and the toxicity value (hereinafter referred to as B) of each compound, which were obtained in the above items (a) and (b), respectively, therapeutic index (hereinafter referred to as C) was calculated in accordance with the following equation.
Therapeutic index (C)=^(B)(A)

[4] = reported in literature; cited from earlier work
[5] = relative to 5-FU; cited from earlier work
[6] = compared with 5-FU; cited from earlier work
nucleosidephosphorylase = conditions: administered in vivo; cited from earlier work
[7] = in vivo; cited from earlier work
[8] = compared with 5-FU; cited from earlier work; remark: listed apart in the source
[9] = administration limited to intraarterial injection; cited from earlier work

| Compound | Antitumor activity value (A) Administration amount of test compound at which tumor enhancement is inhibited by 50% compared with that of control group (Sarcoma 180 [1]; Table 1-c) [mg/kg/day] | TD50 at 240 h ([2]; Table 1-c) [mg/kg] | Therapeutic index (C) = (B)/(A) (Sarcoma 180 [3]) | other results |
| --- | --- | --- | --- | --- |
| CCOC[C@H]1O[C@@H](n2cc(F)c(=O)n(C(=O)c3ccccc3)c2=O)C[C@@H]1O [Compound 35, 3-benzoyl-2'-deoxy-5'-O-ethyl-5-fluorouridine] | 51 | 70 | 1.37 | – |
| CCOC[C@H]1O[C@@H](n2cc(F)c(=O)[nH]c2=O)C[C@@H]1O [Compound 39] | 28 | 67 | 2.39 | – |
| O=c1[nH]c(=O)n([C@H]2C[C@H](O)[C@@H](COCc3ccccc3)O2)cc1F [Compound 41] | 13 | 30 | 2.31 | – |
| O=c1[nH]c(=O)n([C@H]2C[C@H](O)[C@@H](CO)O2)cc1C(F)(F)F [F3 TdR, 2'-Deoxy-5-trifluoromethyl uridine, reference compound] | – | – | – | Antitumor activity value (A) Administration amount of test compound at which tumor enhancement is inhibited by 50% compared with that of control group (Sarcoma 180 [1]; Table 1-a): 68 mg/kg/day; Antitumor activity value (A) Administration amount of test compound at which tumor enhancement is inhibited by 50% compared with that of control group (Sarcoma 180 [1]; Table 1-b): 58 mg/kg/day; Toxicity value (B) Administration amount of test compound at which weight increase of test animal is inhibited by 50% compared with that of control group ([2]; Table 1-a, 14400 min): 49 mg/kg/day; TD50 at 240 h ([2]; Table 1-b): 40 mg/kg; antitumor activity [4]: has an antitumor activity |
| O=c1[nH]c(=O)n([C@H]2C[C@H](O)[C@@H](CO)O2)cc1F [FudR, 2'-deoxy-5-fluorouridine] | 93 | 71 | 0.76 | carcinostatic activity in vitro [5]: about 100 times that of 5-fluorouracil; conversion in vivo into active form [6]: more easily than 5-FU; decomposition into 5-FU by nucleosidephosphorylase (nucleosidephosphorylase): easily decomposed into 5-FU by nucleosidephosphorylase; excretion [7]: excreted very quickly; prolonged action in blood [7]: poor prolonged action in blood; carcinostatic effect [8]: inferior to 5-FU in carcinostatic effect; toxicity as a medicine [9]: very toxic |
